Results from patent US12344615B2, “Substituted pyridines as ion channel modulators” (PRAXIS PRECISION MEDICINES, INC., priority 2019, dated 2025).

Target: T1, INaL v1.6 (late sodium current, HEK-293 cells expressing recombinant sodium channels) (Homo sapiens, UniProt Q9UQD0)
T1 construct: expressed in transfected cells; host or cells: HEK-293
Experiment: Inhibition of ATX-II evoked Nav late current (INaL), PatchXpress electrophysiology
Type: cell-based
Conditions: late current evoked by ATX-II 300 nM; for inhibition at 1 µM: HEK293, compound at 1 μM; for INaL v1.6 % Inhibition: compound at 1 μM
Experimental: Functional characterization of exemplary compounds to modulate voltage gated sodium currents was accomplished using the PatchXpress™ high throughput electrophysiology platforms (Molecular Devices, Sunnyvale, CA). HEK-293 cells expressing recombinant sodium channels were grown in DMEM/high-glucose Dulbecco's modified, 10% FBS, 2 mM sodium pyruvate, and G418. Nav channel expressing cells were grown to 50%-80% confluency and harvested by trypsinization. Trypsinized cells were washed and resuspended in extracellular buffer at a concentration of 1×10^6 cells/ml. The onboard liquid handling facility of the PatchXpress was used for dispensing cells and application of test compounds. Nav late currents were evoked by the application of ATX-II, 300 nM. Currents were evoked by depolarizing pulses to 0 mV for 200 ms from a non-inactivating holding potential (e.g., −120 mV to −150 mV) at a frequency of 0.1 Hz. Late current amplitude and stability were determined by analyzing the mean current amplitude over the 175-195 msec region of the 200 msec test pulse. Following steady state block with exemplary compounds (e.g., as described herein) at 1 μM, a Na^+ free solution containing an impermeant cation (e.g., Choline or NDMG) was added for determination of the 0 current level. Late current amplitudes for each test condition were determined from the mean of the 175-195 msec region of the 200 msec test pulse. Percent inhibition of steady state currents was calculated as (compound−baseline)/(control−baseline)*100, where control represents INaL recorded in the absence of compound.

T1 sequence (Q9UQD0 whole entry): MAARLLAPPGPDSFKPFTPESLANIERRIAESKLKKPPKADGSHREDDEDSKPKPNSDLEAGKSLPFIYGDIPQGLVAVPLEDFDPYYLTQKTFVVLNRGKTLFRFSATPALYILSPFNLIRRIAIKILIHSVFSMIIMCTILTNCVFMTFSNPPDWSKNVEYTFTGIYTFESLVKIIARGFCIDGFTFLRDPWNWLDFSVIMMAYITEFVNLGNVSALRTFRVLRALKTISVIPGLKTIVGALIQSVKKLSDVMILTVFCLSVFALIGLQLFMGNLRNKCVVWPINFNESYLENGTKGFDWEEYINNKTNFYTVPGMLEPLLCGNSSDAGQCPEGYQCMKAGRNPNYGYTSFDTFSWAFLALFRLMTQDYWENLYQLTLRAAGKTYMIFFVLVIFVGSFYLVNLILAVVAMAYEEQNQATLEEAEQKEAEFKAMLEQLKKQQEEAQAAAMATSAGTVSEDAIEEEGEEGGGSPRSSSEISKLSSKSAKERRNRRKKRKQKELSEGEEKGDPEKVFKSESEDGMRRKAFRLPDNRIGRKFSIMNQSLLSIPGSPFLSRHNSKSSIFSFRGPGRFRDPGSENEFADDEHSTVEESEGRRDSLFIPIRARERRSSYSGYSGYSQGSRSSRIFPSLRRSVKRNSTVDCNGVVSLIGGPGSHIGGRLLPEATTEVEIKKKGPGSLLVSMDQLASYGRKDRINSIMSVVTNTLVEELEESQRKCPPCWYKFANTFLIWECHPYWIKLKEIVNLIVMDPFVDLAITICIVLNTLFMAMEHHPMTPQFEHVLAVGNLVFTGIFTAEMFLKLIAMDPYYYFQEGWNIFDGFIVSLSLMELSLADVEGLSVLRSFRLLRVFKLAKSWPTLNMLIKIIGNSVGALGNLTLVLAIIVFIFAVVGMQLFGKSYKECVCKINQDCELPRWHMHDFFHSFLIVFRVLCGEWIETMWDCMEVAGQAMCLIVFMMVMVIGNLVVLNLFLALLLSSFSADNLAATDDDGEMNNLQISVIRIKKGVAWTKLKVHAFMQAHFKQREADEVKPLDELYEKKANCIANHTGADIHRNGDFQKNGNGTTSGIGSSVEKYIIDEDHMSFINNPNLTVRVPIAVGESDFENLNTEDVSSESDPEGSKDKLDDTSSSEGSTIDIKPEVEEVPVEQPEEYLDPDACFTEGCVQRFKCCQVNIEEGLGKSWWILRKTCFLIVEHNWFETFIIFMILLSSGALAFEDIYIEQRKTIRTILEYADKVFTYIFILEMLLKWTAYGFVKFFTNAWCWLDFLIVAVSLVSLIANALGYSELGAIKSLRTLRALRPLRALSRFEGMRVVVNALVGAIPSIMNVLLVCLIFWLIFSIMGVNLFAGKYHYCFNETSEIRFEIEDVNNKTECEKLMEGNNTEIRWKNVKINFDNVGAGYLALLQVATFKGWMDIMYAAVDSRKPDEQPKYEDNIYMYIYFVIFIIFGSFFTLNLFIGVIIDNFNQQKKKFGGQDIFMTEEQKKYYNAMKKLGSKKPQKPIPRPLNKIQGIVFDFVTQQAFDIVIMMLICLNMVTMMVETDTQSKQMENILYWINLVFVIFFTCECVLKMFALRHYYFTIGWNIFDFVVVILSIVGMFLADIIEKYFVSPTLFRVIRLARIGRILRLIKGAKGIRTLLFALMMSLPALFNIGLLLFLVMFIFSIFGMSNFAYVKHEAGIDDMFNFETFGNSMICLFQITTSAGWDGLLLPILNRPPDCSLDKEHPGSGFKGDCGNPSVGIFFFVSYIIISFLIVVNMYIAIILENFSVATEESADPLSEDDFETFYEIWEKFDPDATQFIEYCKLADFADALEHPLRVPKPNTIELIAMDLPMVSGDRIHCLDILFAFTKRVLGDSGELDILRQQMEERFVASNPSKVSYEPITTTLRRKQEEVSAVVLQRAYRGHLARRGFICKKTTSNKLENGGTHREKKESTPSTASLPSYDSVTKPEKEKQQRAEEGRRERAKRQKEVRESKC

Which inhibition at 1 µM does the source give for `CC(C)(Oc1ncc(-c2ccc3nnc(C4CC4(F)F)n3n2)cc1F)C(F)(F)F` (single isomer, unassigned) [11 (Isomer 1)] here?
Its inhibition at 1 µM is > 75%.

With `CC(C)(Oc1ncc(-c2cn3c(C4CC4(F)F)nnc3cn2)cc1F)C(F)(F)F` (single isomer, unassigned) [13 (Isomer 1)] as the compound, how does the inhibition at 1 µM read?
Its inhibition at 1 µM is < 50%.

With `CC(C)(Oc1ncc(-c2cn3c(C4CC4(F)F)nnc3cn2)cc1F)C(F)(F)F` (single isomer, unassigned) [13 (Isomer 2)] as the compound, how does the “INaL v1.6 % Inhibition” value read?
The value was “B (inhibition of 50% to 75%)”.

With `C[C@@H](Oc1ncc(-c2cn3c(C4CC4(F)F)nnc3cn2)cc1F)C(F)(F)F` (single isomer, unassigned) [16 (Isomer 1)] as the compound, how does the inhibition at 1 µM read?
The inhibition at 1 µM was < 50%.

Which “INaL v1.6 % Inhibition” value does the source give for `C[C@@H](Oc1ncc(-c2cn3c(C4CC4(F)F)nnc3cn2)cc1F)C(F)(F)F` (single isomer, unassigned) [16 (Isomer 2)] here?
Its value is “B (inhibition of 50% to 75%)”.

With `C[C@H](Oc1ncc(-c2cn3c(C4CC4(F)F)nnc3cn2)cc1F)C(F)(F)F` (single isomer, unassigned) [18 (Isomer 1)] as the compound, how does the inhibition at 1 µM read?
The inhibition at 1 µM was < 50%.

`C[C@H](Oc1ncc(-c2cn3c(C4CC4(F)F)nnc3cn2)cc1F)C(F)(F)F` (single isomer, unassigned) [18 (Isomer 2)] was tested. Which “INaL v1.6 % Inhibition” value did it give?
The value was “B (inhibition of 50% to 75%)”.

How did the inhibition at 1 µM turn out when `Fc1cc(-c2ccc3nnc(C(F)F)n3n2)cnc1OCC1CC1(F)F` (single isomer, unassigned) [21 (Isomer 1)] was run?
The inhibition at 1 µM was 50 to 75%.

With `Fc1cc(-c2ccc3nnc(C(F)F)n3n2)cnc1OCC1CC1(F)F` (single isomer, unassigned) [21 (Isomer 2)] as the compound, how does the “INaL v1.6 % Inhibition” value read?
Its value is “A (inhibition of less than 50%)”.

`Fc1cc(-c2ccc3nnc(C(F)(F)F)n3n2)cnc1OCC1CC1(F)F` (single isomer, unassigned) [23 (Isomer 1)] was tested. Which inhibition at 1 µM did it give?
The inhibition at 1 µM was 50 to 75%.

How did the inhibition at 1 µM turn out when `Fc1cc(-c2ccc3nnc(C(F)(F)F)n3n2)cnc1OC1CC(F)(F)C1(F)F` (single isomer, unassigned) [25 (Isomer 1)] was run?
The inhibition at 1 µM was > 75%.

Which inhibition at 1 µM does the source give for `Fc1cc(-c2cn3c(C(F)(F)F)nnc3cn2)cnc1OCC1CC1(F)F` (single isomer, unassigned) [28 (Isomer 1)] here?
The inhibition at 1 µM was 50 to 75%.

With `Fc1cc(-c2cn3c(C(F)F)nnc3cn2)cnc1OCC1CC1(F)F` (single isomer, unassigned) [30 (Isomer 1)] as the compound, how does the inhibition at 1 µM read?
Its inhibition at 1 µM is < 50%.

With `Fc1cc(-c2cn3c(C(F)(F)F)nnc3cn2)cnc1OC1CC(F)(F)C1(F)F` (single isomer, unassigned) [32 (Isomer 1)] as the compound, how does the inhibition at 1 µM read?
Its inhibition at 1 µM is > 75%.

`CC(C)(Oc1ncc(-c2cn3c(C(F)F)nnc3cn2)cc1F)C(F)(F)F` [Compound 1, 3-(difluoromethyl)-6-[5-fluoro-6-(2,2,2-trifluoro-1,1-dimethyl-ethoxy)-3-pyridyl]-[1,2,4]triazolo[4,3-a]pyrazine] was tested. Which inhibition at 1 µM did it give?
The inhibition at 1 µM was > 75%.

How did the inhibition at 1 µM turn out when `Fc1cc(-c2cn3c(C(F)(F)F)nnc3cn2)cnc1OC1(C(F)(F)F)COC1` [Compound 2, 6-[5-fluoro-6-[3-(trifluoromethyl)oxetan-3-yl]oxy-3-pyridyl]-3-(trifluoromethyl)-[1,2,4]triazolo[4,3-a]pyrazine] was run?
Its inhibition at 1 µM is < 50%.

With `CC(C)(Oc1ncc(-c2cn3c(C(F)(F)F)nnc3cn2)cc1F)C(F)(F)F` [Compound 3, 6-[5-fluoro-6-(2,2,2-trifluoro-1,1-dimethyl-ethoxy)-3-pyridyl]-3-(trifluoromethyl)-[1,2,4]triazolo[4,3-a]pyrazine] as the compound, how does the inhibition at 1 µM read?
The inhibition at 1 µM was > 75%.

For `Fc1cc(-c2ccc3nnc(C(F)(F)F)n3n2)cnc1OC1(C(F)(F)F)COC1` [Compound 4, 6-[5-fluoro-6-[3-(trifluoromethyl)oxetan-3-yl]oxy-3-pyridyl]-3-(trifluoromethyl)-[1,2,4]triazolo[4,3-b]pyridazine], which inhibition at 1 µM is on record?
Its inhibition at 1 µM is 50 to 75%.

With `Fc1cc(-c2ccc3nnc(C(F)(F)F)n3n2)cnc1OC1(C(F)(F)F)CCC1` [Compound 6, 6-[5-fluoro-6-[1-(trifluoromethyl)cyclobutoxy]-3-pyridyl]-3-(trifluoromethyl)-[1,2,4]triazolo[4,3-b]pyridazine] as the compound, how does the inhibition at 1 µM read?
Its inhibition at 1 µM is > 75%.

How did the inhibition at 1 µM turn out when `Fc1cc(-c2cn3c(C(F)(F)F)nnc3cn2)cnc1OC1(C(F)(F)F)CCC1` [Compound 7, 6-[5-fluoro-6-[1-(trifluoromethyl)cyclobutoxy]-3-pyridyl]-3-(trifluoromethyl)-[1,2,4]triazolo[4,3-a]pyrazine] was run?
The inhibition at 1 µM was > 75%.

For `CC(C)(Oc1ncc(-c2cn3c(C4CC(F)(F)C4)nnc3cn2)cc1F)C(F)(F)F` [Compound 8, 3-(3,3-difluorocyclobutyl)-6-[5-fluoro-6-(2,2,2-trifluoro-1,1-dimethyl-ethoxy)-3-pyridyl]-[1,2,4]triazolo[4,3-a]pyrazine], which inhibition at 1 µM is on record?
Its inhibition at 1 µM is 50 to 75%.

For `Fc1cc(-c2cn3c(C(F)F)nnc3cn2)cnc1OC1(C(F)(F)F)CCC1` [Compound 9, 3-(difluoromethyl)-6-[5-fluoro-6-[1-(trifluoromethyl)cyclobutoxy]-3-pyridyl]-[1,2,4]triazolo[4,3-a]pyrazine], which inhibition at 1 µM is on record?
The inhibition at 1 µM was > 75%.

Which inhibition at 1 µM does the source give for `CC(C)(Oc1ncc(-c2cn3c(C4CC4(F)F)nnc3cn2)cc1F)C(F)(F)F` (stereo not drawn) [Compound 10, 3-(2,2-difluorocyclopropyl)-6-[5-fluoro-6-(2,2,2-trifluoro-1,1-dimethyl-ethoxy)-3-pyridyl]-[1,2,4]triazolo[4,3-a]pyrazine] here?
The inhibition at 1 µM was 50 to 75%.

How did the inhibition at 1 µM turn out when `CC(C)(Oc1ncc(-c2ccc3nnc(C4CC4(F)F)n3n2)cc1F)C(F)(F)F` (stereo not drawn) [Compound 12, 3-(2,2-difluorocyclopropyl)-6-[5-fluoro-6-(2,2,2-trifluoro-1,1-dimethyl-ethoxy)-3-pyridyl]-[1,2,4]triazolo[4,3-b]pyridazine] was run?
The inhibition at 1 µM was > 75%.

With `CC(C)(Oc1ncc(-c2ccc3nnc(C4CC(F)(F)C4)n3n2)cc1F)C(F)(F)F` [Compound 14, 3-(3,3-difluorocyclobutyl)-6-[5-fluoro-6-(2,2,2-trifluoro-1,1-dimethyl-ethoxy)-3-pyridyl]-[1,2,4]triazolo[4,3-b]pyridazine] as the compound, how does the inhibition at 1 µM read?
The inhibition at 1 µM was > 75%.

With `C[C@H](Oc1ncc(-c2ccc3nnc(C(F)F)n3n2)cc1F)C(F)(F)F` [Compound 15, 3-(difluoromethyl)-6-[5-fluoro-6-[(1S)-2,2,2-trifluoro-1-methyl-ethoxy]-3-pyridyl]-[1,2,4]triazolo[4,3-b]pyridazine] as the compound, how does the inhibition at 1 µM read?
Its inhibition at 1 µM is > 75%.

With `C[C@@H](Oc1ncc(-c2ccc3nnc(C(F)F)n3n2)cc1F)C(F)(F)F` [Compound 17, 3-(difluoromethyl)-6-[5-fluoro-6-[(1R)-2,2,2-trifluoro-1-methyl-ethoxy]-3-pyridyl]-[1,2,4]triazolo[4,3-b]pyridazine] as the compound, how does the inhibition at 1 µM read?
Its inhibition at 1 µM is > 75%.

For `C[C@H](Oc1ncc(-c2cn3c(C4CC(F)(F)C4)nnc3cn2)cc1F)C(F)(F)F` [Compound 19, 3-(3,3-difluorocyclobutyl)-6-[5-fluoro-6-[(1S)-2,2,2-trifluoro-1-methyl-ethoxy]-3-pyridyl]-[1,2,4]triazolo[4,3-a]pyrazine], which inhibition at 1 µM is on record?
The inhibition at 1 µM was 50 to 75%.

Which inhibition at 1 µM does the source give for `C[C@@H](Oc1ncc(-c2cn3c(C4CC(F)(F)C4)nnc3cn2)cc1F)C(F)(F)F` [Compound 20, 3-(3,3-difluorocyclobutyl)-6-[5-fluoro-6-[(1R)-2,2,2-trifluoro-1-methyl-ethoxy]-3-pyridyl]-[1,2,4]triazolo[4,3-a]pyrazine] here?
The inhibition at 1 µM was < 50%.

Which inhibition at 1 µM does the source give for `Fc1cc(-c2ccc3nnc(C(F)F)n3n2)cnc1OCC1CC1(F)F` (stereo not drawn) [Compound 22, 6-[6-[(2,2-difluorocyclopropyl)methoxy]-5-fluoro-3-pyridyl]-3-(difluoromethyl)-[1,2,4]triazolo[4,3-b]pyridazine] here?
The inhibition at 1 µM was < 50%.

With `Fc1cc(-c2ccc3nnc(C(F)(F)F)n3n2)cnc1OCC1CC1(F)F` (stereo not drawn) [Compound 24, 6-[6-[(2,2-difluorocyclopropyl)methoxy]-5-fluoro-3-pyridyl]-3-(trifluoromethyl)-[1,2,4]triazolo[4,3-b]pyridazine] as the compound, how does the inhibition at 1 µM read?
The inhibition at 1 µM was 50 to 75%.

`Fc1cc(-c2ccc3nnc(C(F)(F)F)n3n2)cnc1OC1CC(F)(F)C1(F)F` (stereo not drawn) [Compound 26, 6-[5-fluoro-6-(2,2,3,3-tetrafluorocyclobutoxy)-3-pyridyl]-3-(trifluoromethyl)-[1,2,4]triazolo[4,3-b]pyridazine] was tested. Which inhibition at 1 µM did it give?
Its inhibition at 1 µM is > 75%.

How did the inhibition at 1 µM turn out when `Fc1cc(-c2cn3c(C(F)(F)F)nnc3cn2)cnc1OCC1CC1(F)F` (stereo not drawn) [Compound 29] was run?
The inhibition at 1 µM was 50 to 75%.

For `Fc1cc(-c2cn3c(C(F)F)nnc3cn2)cnc1OCC1CC1(F)F` (stereo not drawn) [Compound 31, 6-[6-[(2,2-difluorocyclopropyl)methoxy]-5-fluoro-3-pyridyl]-3-(difluoromethyl)-[1,2,4]triazolo[4,3-a]pyrazine], which inhibition at 1 µM is on record?
Its inhibition at 1 µM is < 50%.

`Fc1cc(-c2cn3c(C(F)(F)F)nnc3cn2)cnc1OC1CC(F)(F)C1(F)F` (stereo not drawn) [Compound 33, 6-[5-fluoro-6-(2,2,3,3-tetrafluorocyclobutoxy)-3-pyridyl]-3-(trifluoromethyl)-[1,2,4]triazolo[4,3-a]pyrazine] was tested. Which inhibition at 1 µM did it give?
Its inhibition at 1 µM is > 75%.

`CC(C)(Oc1ncc(-c2ccc3nnc(C(F)(F)F)n3n2)cc1F)C(F)(F)F` [Compound 34, 6-[5-fluoro-6-(2,2,2-trifluoro-1,1-dimethyl-ethoxy)-3-pyridyl]-3-(trifluoromethyl)-[1,2,4]triazolo[4,3-b]pyridazine] was tested. Which inhibition at 1 µM did it give?
The inhibition at 1 µM was > 75%.
